Measured values taken from PMC11428291, “Peptide and Protein Cysteine Modification Enabled by Hydrosulfuration of Ynamide” (ACS Central Science, 2024).

Columns and labels:
[1] = Water solubility of ynamides (qualitative); type: physicochemical; conditions: qualitative statement
Method: To this end, N-methylynetoluenesulfonamide (MYTsA, 2a), the first-generation ynamide coupling reagent for peptide synthesis,[39] was tested in our model reaction as a reference. […] Further optimization was performed to implement this chemistry under biocompatible conditions, such as aqueous media, near-neutral pH (6–8), and physiological temperature. In parallel, the poor water-solubility of 2a led to a sluggish reaction in an MeCN/phosphate buffer mixture (pH 8, 3:7), giving 3aa in 80% yield over 24 h. Enhancing the solubility by replacing the methyl group of R^2 with a 2-hydroxyethyl group (2b) led to a more efficient reaction, with an 89% yield of 3ab. […] Substituting the p-toluenesulfonyl (Ts) group of 2a with a trifluoromethylsulfonyl (triflyl, Tf, 2e) group enhanced both the solubility in water and the reaction efficiency due to its stronger electron-withdrawing ability and increased hydrophilicity. This modification facilitated the reaction to completion within 20 min in phosphate buffer with minimal MeCN (5%), yielding the product (3ae) as a single Z-isomer in 95% yield, confirmed by NMR (Z:E > 99:1; see zoom-in ^1H NMR spectra in Figure 2b and details in SI). […] This underscores the versatility of ynamide functionalization via R^2 group modification, promising broad applicability in synthesizing diverse conjugates. […]

[2] = Reaction rate study: hydrosulfuration of glutathione (GSH) to ynamide; conditions: pseudo-first order, ynamide 0.25 mM, GSH 2.5, 5 and 10 mM, 5% MeCN, pH 8.0, 0.2 M PBS, 37 °C, UV-Visible absorbance at 244 nm, triplicate
Method: In line with our proposal, the conjugation of the optimal ynamide (2e) and peptide (1a) was sensitive to pH and was sluggish under neutral conditions (pH 6–7.5, Figure S14). […] To further dissect the reaction mechanism, the reaction was carried out in the presence of different types of radical scavengers; no negative effect on the reaction efficacy was observed. In addition, the thiyl radical chemistry of ynamide was examined in aqueous medium, but no reaction was detected (see the SI for details, Schemes S15–S16).
9) Reaction Rate study of the Peptide Conjugates
HO N N OH PBS, pH = 8.0, MeCN, 37 °CHONN OH
Figure S64.Reaction Rate study of the Peptide Conjugates
The reaction between Ynamide (2e) and glutathione (GSH) was measured under pseudo- first order conditions with 10, 20 and 40 equivalents of GSH by real-time monitor of conjugate reactio n using UV-Visible absorbance at 244 nm (max absorbance wavelength for 3me). Solutions were prepared in MeCN (5%), pH 8.0, 0.2 M PBS with Ynamide (0.25 mM) and GSH (2.5 mM, 5 mM and 10 mM). Data was recorded for 2-5 min and performed in triplicate at 37 ℃. The averages of the observed rates (kobs), determined by nonlinear regression analysis of the data points were plotted against the concentration of GSH and the bimolecular rate constant k2, […]
8. Trastuzumab R eduction […]

[3] = type: physicochemical; conditions: conjugate 10 μM, 10 mM H2O2 in buffer, pH 4, 8 and 10, 37 °C, 24 h (Figure S59)
From the text: (§1) The stability of the conjugated products is of the utmost importance for developing a powerful peptide and protein modification strategy.[6] […] Moreover, the cleavage of 3ae in the presence of external thiol to regenerate the unmodified 1a, which occurred in other methods,[16b],[33a] was not detected in our hands (using 2-mercaptoethanol, Figure S58). In contrast, the iodoacetamide (IAM) peptide conjugate decomposed under the aforementioned conditions (Figures S61–S63).
(§2) Figure S58.Stability of 3ae ( 1mM) in the presence of external thiol
(§3) 4) Stability of 3ae (10 μM) when treated with large excess ((10mM H2O2 in buffer) of
Figure S59.Stability of 3ae ( 10μM) when tr eated with large excess of H 2O2 (at pH 4, […]
7) Stability of iodoacetamide labelling product (10 μM) when treated with large
excess ((10mM H2O2 in buffer)of H 2O2 (at pH 2 and 13 at 37 °C) for 24 h
Figure S62.Stability of iodoacetamide labelling product (10 μM) when treated with
large excess of H2O2 (at pH 2 and 13at 37 °C)
8) Stability of iodoacetamide labelling product (10 μM) when treated with bovine
Figure S63.Stability of iodoacetamide labelling product (10 μM) when treated with […]

[4] = Stability of peptide conjugate in the presence of external thiol (2-mercaptoethanol); type: physicochemical; conditions: conjugate 1 mM, pH 8.0 (Figure S58)
From the text: as §1
7. Stability Study and Reaction Rate study of the Peptide Conjugates
1) Stability study of the peptide conjugate 3ae
Figure S56.Stability study of the peptide conjugate 3ae
2) Stability of 3ae (1 mM) in buffers at pH 2.0, pH 8.0, pH 10.0, pH 13.0 at 37 °C for
Figure S57.Stability of 3ae ( 1mM) in buffers at pH 2.0, pH 8.0,pH 10.0,pH 13.0
3) Stability of 3ae (1 mM) in the presence of external thiol ( 2- mercaptoethanol)，pH […]
as §2, §3
Figure S59.Stability of 3ae ( 10μM) when tr eated with large excess of H 2O2 (at pH 4,

## C#CN(C)S(=O)(=O)c1ccc(C)cc1 [2a, N-methylynetoluenesulfonamide]
[1]
  Water-solubility: poor

## C#CN(CCO)S(=O)(=O)C(F)(F)F [2e]
[2]
  Apparent second-order rate constant for the thiol conjugation (k2, app.): 0.2399 ± 0.002 M^–1 s^–1
[1]; compared with 2a
  Solubility in water relative to 2a: enhanced

## CCOC(=O)[C@H](CS/C=C\N(CCO)S(=O)(=O)C(F)(F)F)NC(=O)[C@H](C)NC(=O)OC(C)(C)C [3ae]
[3]
  β-syn elimination when treated with a large excess of H2O2: did not undergo β-syn elimination
[4]
  Cleavage in the presence of external thiol to regenerate the unmodified 1a: not detected
